The target of assay [1] is GDP-bound NRAS wild-type protein (Homo sapiens, UniProt P01111). The assay is described as follows: Binding to NRAS by surface plasmon resonance (SPR), Single Cycle Kinetics. The settings on record: ratio of KD for GDP-bound NRAS wild-type protein to KD for KRAS, SPR.
Assay [2] concerns the target GDP-bound KRAS wild-type protein (Homo sapiens, UniProt P01116). Briefly: Binding to KRAS by surface plasmon resonance (SPR), Single Cycle Kinetics. The following applies: SPR, Single Cycle Kinetics, GDP-bound KRAS wild-type protein; read-out: KRAS KD. In general terms: Surface plasmon resonance follows binding to a sensor surface in real time, without labels.
Assay [3] addresses GDP-bound HRAS wild-type protein (Homo sapiens, UniProt P01112). Briefly: Binding to HRAS by surface plasmon resonance (SPR), Single Cycle Kinetics. The following applies: ratio of KD for GDP-bound HRAS wild-type protein to KD for KRAS, SPR.
For assay [4], the system named is human lung cancer strain NCI-H441. Briefly: cells. The settings on record: NCI-H441, 96 h, read-out: NCI-H441 IC50 (nM), NCI-H441 cell proliferation, 4 days, CellTiter-Glo.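 Further: cell proliferation inhibition after four days measured by CellTiter-Glo.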

*1 amine or outer side, *2 acyl side, *3 side chain or, on linkers, in order; H or OH if unused. Where a SMILES comes first, the peptide text is derived from it. Bridges are numbered along the chain shown (N, C = ends). [ ]: non-standard residue; d: D form. The star is where a group is joined. hPhe(3-Cl-4-CF3) = N[C@@H](CCc1ccc(C(F)(F)F)c(Cl)c1)C(=O)O; NPrPhe(4-CF3) = CCCN[C@@H](Cc1ccc(C(F)(F)F)cc1)C(=O)O; NPrAsp = CCCN([C@@H](CC(=O)[*:3])C(=O)[*:2])[*:1]; NEtAsp = CCN([C@@H](CC(=O)[*:3])C(=O)[*:2])[*:1]; NMeGly(cPent) = CN[C@H](C(=O)O)C1CCCC1; NMeL = CN[C@@H](CC(C)C)C(=O)O; NMeNva = CCC[C@H](NC)C(=O)O; Morpholide = C1CN(*)CCO1; Ac4c = NC1(C(=O)O)CCC1; Sar = CNCC(=O)O

As usually defined, the Kd is the concentration at which binding is half-saturated.

GDP-bound HRAS wild-type protein, sequence (P01112 whole entry): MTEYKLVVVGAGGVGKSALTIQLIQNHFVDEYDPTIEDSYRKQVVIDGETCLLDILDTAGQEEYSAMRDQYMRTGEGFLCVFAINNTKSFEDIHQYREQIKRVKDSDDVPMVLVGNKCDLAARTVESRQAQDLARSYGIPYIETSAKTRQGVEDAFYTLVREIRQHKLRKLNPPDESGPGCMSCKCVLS
GDP-bound KRAS wild-type protein, sequence (P01116 whole entry): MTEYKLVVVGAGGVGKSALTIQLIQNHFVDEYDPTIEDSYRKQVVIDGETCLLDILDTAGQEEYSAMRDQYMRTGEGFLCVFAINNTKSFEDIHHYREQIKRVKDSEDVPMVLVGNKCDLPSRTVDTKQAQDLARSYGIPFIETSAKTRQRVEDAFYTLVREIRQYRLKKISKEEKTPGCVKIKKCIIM
GDP-bound NRAS wild-type protein, sequence (P01111 whole entry): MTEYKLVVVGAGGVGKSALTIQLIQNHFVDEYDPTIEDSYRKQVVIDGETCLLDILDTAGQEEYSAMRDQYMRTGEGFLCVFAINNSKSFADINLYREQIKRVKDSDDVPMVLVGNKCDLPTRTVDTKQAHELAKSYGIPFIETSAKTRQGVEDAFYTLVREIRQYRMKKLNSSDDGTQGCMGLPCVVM

`CCO[C@@H]1C[C@H]2C(=O)NC3(CC(C)(C)C3)C(=O)N(C)[C@@H](C3CCCC3)C(=O)N(C)[C@H](C(=O)N(C)CC)CC(=O)N(C)[C@@H](COC)C(=O)N[C@@H]([C@@H](C)CC)C(=O)N(C)CC(=O)N(C)[C@H]3C/C=C\CCN(C3=O)[C@@H](Cc3ccc(C(F)(F)F)cc3)C(=O)N(C)CC(=O)N[C@@H](CCc3cc(F)c(C(F)(F)F)c(F)c3)C(=O)N2C1` [PP1671]: in assay [1], the “NRAS/KRAS (KD ratio)” value was “A (a compound having 10 or more and less than 20 is denoted as A)”. The Kd in assay [2] came out at 0.077 nM. Moreover, in assay [3], the “HRAS/KRAS (KD ratio)” value was “A (a compound having 10 or more and less than 20 is denoted as A)”. Also, the IC50 in assay [4] stood at 3 nM.
Turning to `CCC[C@H]1C(=O)N[C@@H]([C@@H](C)CC)C(=O)N(C)CC(=O)N(C)[C@H]2C/C=C\CCN(C2=O)[C@@H](Cc2ccc(C)cc2)C(=O)N(C)CC(=O)N[C@@H](CCc2cc(F)c(C(F)(F)F)c(F)c2)C(=O)N2C[C@H](C)C[C@H]2C(=O)N(C)C2(CCC2)C(=O)N(C)[C@@H](C2CCCC2)C(=O)N(C)[C@H](C(=O)N(C)C)CC(=O)N1C` [PP1799], the “NRAS/KRAS (KD ratio)” value in assay [1] was “B (a compound having 3 or more and less than 10 is denoted as B)”. For the same compound, the dissociation constant (Kd) in assay [2] is 0.068 nM. Also, the “HRAS/KRAS (KD ratio)” value in assay [3] was “B (a compound having 3 or more and less than 10 is denoted as B)”. In addition, in assay [4], the IC50 was found to be 7.6 nM.
Consider `CCCN(C)C(=O)[C@@H]1CC(=O)N(C)[C@@H](CC(F)F)C(=O)N[C@@H]([C@@H](C)CC)C(=O)N(C)CC(=O)N(C)[C@H]2C/C=C\CCN(C2=O)[C@@H](Cc2ccc(C(F)(F)F)cc2)C(=O)N(C)CC(=O)N[C@@H](CCc2ccc(C(F)(F)F)c(OC)c2)C(=O)N2C[C@H](OCC)C[C@H]2C(=O)NC2(CC(C)(C)C2)C(=O)N(C)[C@@H](C2CCCC2)C(=O)N1C` [PP2010], for which the “NRAS/KRAS (KD ratio)” value in assay [1] was “A (a compound having 10 or more and less than 20 is denoted as A)”. For the same compound, the Kd in assay [2] turned out to be 0.14 nM. The “HRAS/KRAS (KD ratio)” value in assay [3] was “B (a compound having 3 or more and less than 10 is denoted as B)”. Besides, the IC50 in assay [4] came to 6.6 nM.
With `CCC[C@H]1C(=O)N[C@@H]([C@@H](C)CC)C(=O)N(C)CC(=O)N(C)CC(=O)N(CCC)[C@@H](Cc2ccc(C(F)(F)F)cc2)C(=O)N(C)CC(=O)N[C@@H](CCc2ccc(C(F)(F)F)c(Cl)c2)C(=O)N2CCC[C@H]2C(=O)NC2(CCC2)C(=O)N(C)[C@@H](C2CCCC2)C(=O)N(CCC)[C@H](C(=O)N2CCOCC2)CC(=O)N1C` [PP1954] ([NMeNva]I[Sar][Sar][NPrPhe(4-CF3)][Sar][hPhe(3-Cl-4-CF3)]P[Ac4c][NMeGly(cPent)][NPrAsp]-Morpholide; lactam N-11), the “NRAS/KRAS (KD ratio)” value in assay [1] was “B (a compound having 3 or more and less than 10 is denoted as B)”. Besides, the Kd in assay [2] is 0.77 nM. Also, the “HRAS/KRAS (KD ratio)” value in assay [3] is “B (a compound having 3 or more and less than 10 is denoted as B)”. Besides, the IC50 in assay [4] came to 8.1 nM.
For `CCO[C@@H]1C[C@H]2C(=O)NC3(CCC3)C(=O)N(C)[C@@H](C3CCCC3)C(=O)N3CCC[C@@H]3CC(=O)N(C)[C@@H](CC3CC3)C(=O)N[C@@H]([C@@H](C)CC)C(=O)N(C)CC(=O)N(C)[C@H]3C/C=C\CCN(C3=O)[C@@H](Cc3ccc(C(F)(F)F)cc3)C(=O)N(C)CC(=O)N[C@@H](CCc3ccc(C(F)(F)F)c(OC)c3)C(=O)N2C1` [PP1616], the “NRAS/KRAS (KD ratio)” value in assay [1] is “B (a compound having 3 or more and less than 10 is denoted as B)”. The Kd in assay [2] came out at 0.29 nM. Further, the “HRAS/KRAS (KD ratio)” value in assay [3] is “B (a compound having 3 or more and less than 10 is denoted as B)”. Also, the IC50 in assay [4] amounted to 33.5 nM.
On to `CCO[C@@H]1C[C@H]2C(=O)N(C)C3(CCCC3)C(=O)N(C)[C@@H](C3CCCC3)C(=O)N(C)[C@H](C(=O)N(C)C)CC(=O)N(C)[C@@H](CC)C(=O)N[C@@H]([C@@H](C)CC)C(=O)N(C)CC(=O)N(C)[C@H]3C/C=C\CCN(C3=O)[C@@H](Cc3ccc(C)cc3)C(=O)N(C)CC(=O)N[C@@H](CCc3cc(F)c(C(F)(F)F)c(F)c3)C(=O)N2C1` [PP1806], for which, in assay [1], the “NRAS/KRAS (KD ratio)” value was “A (a compound having 10 or more and less than 20 is denoted as A)”. The Kd in assay [2] is 0.06 nM. Also, in assay [3], the “HRAS/KRAS (KD ratio)” value was “B (a compound having 3 or more and less than 10 is denoted as B)”. In addition, in assay [4], the IC50 came out at 4 nM.
In the case of `CC[C@H](C)[C@@H]1NC(=O)[C@H](C(C)C)N(C)C(=O)C[C@@H](C(=O)N(C)C)N(C)C(=O)[C@H](C2CCCC2)N(C)C(=O)C2(CC(C)(C)C2)NC(=O)[C@@H]2C[C@H](C)CN2C(=O)[C@H](CCc2ccc(C(F)(F)F)c(OC)c2)NC(=O)CN(C)C(=O)[C@H](Cc2ccc(C(F)(F)F)cc2)N2CC/C=C\C[C@@H](C2=O)N(C)C(=O)CN(C)C1=O` [PP2005], the “NRAS/KRAS (KD ratio)” value in assay [1] was “A (a compound having 10 or more and less than 20 is denoted as A)”. In addition, in assay [2], the Kd was 0.13 nM. The “HRAS/KRAS (KD ratio)” value in assay [3] is “A (a compound having 10 or more and less than 20 is denoted as A)”. For the same compound, the IC50 in assay [4] is 10.7 nM.
As for `C#CC[C@H]1C(=O)N[C@@H]([C@@H](C)CC)C(=O)N(C)CC(=O)N(C)[C@H]2C/C=C\CCN(C2=O)[C@@H](Cc2ccc(C(F)(F)F)cc2)C(=O)N(C)CC(=O)N[C@@H](CCc2cc(F)c(C(F)(F)F)c(F)c2)C(=O)N2C[C@H](F)C[C@H]2C(=O)NC2(CC(C)(C)C2)C(=O)N(C)[C@@H](C2CCCC2)C(=O)N(C)[C@H](C(=O)N(C)CCC)CC(=O)N1C` [PP1692], the “NRAS/KRAS (KD ratio)” value in assay [1] was “AA (a compound having 20 or more is denoted as AA)”. Further, in assay [2], the Kd came to 0.11 nM. In addition, the “HRAS/KRAS (KD ratio)” value in assay [3] is “A (a compound having 10 or more and less than 20 is denoted as A)”. Besides, the IC50 in assay [4] turned out to be 4.3 nM.
Take `CCCN1C(=O)CN(C)C(=O)CN(C)C(=O)[C@H]([C@@H](C)CC)NC(=O)[C@H](CC(C)C)N(C)C(=O)C[C@@H](C(=O)N2CCOCC2)N(CC)C(=O)[C@H](C2CCCC2)N(C)C(=O)C2(CCC2)NC(=O)[C@@H]2CCCN2C(=O)[C@H](CCc2ccc(C(F)(F)F)c(Cl)c2)NC(=O)CN(C)C(=O)[C@@H]1Cc1ccc(C(F)(F)F)cc1` [PP1953] ([NMeL]I[Sar][Sar][NPrPhe(4-CF3)][Sar][hPhe(3-Cl-4-CF3)]P[Ac4c][NMeGly(cPent)][NEtAsp]-Morpholide; lactam N-11): the “NRAS/KRAS (KD ratio)” value in assay [1] is “B (a compound having 3 or more and less than 10 is denoted as B)”. Further, the Kd in assay [2] came to 0.42 nM. Moreover, the “HRAS/KRAS (KD ratio)” value in assay [3] is “B (a compound having 3 or more and less than 10 is denoted as B)”. The IC50 in assay [4] worked out at 8.7 nM.
In the case of `CC[C@H](C)[C@@H]1NC(=O)[C@H](CC(F)F)N(C)C(=O)C[C@@H](C(=O)N(C)C)N(C)C(=O)[C@H](C2CCCC2)N(C)C(=O)C2(CC(C)(C)C2)NC(=O)[C@@H]2C[C@H](C)CN2C(=O)[C@H](CCc2cc(F)c(C(F)(F)F)c(F)c2)NC(=O)CN(C)C(=O)[C@H](Cc2ccc(C(F)(F)F)cc2)N2CC/C=C\C[C@@H](C2=O)N(C)C(=O)CN(C)C1=O` [PP1658], the “NRAS/KRAS (KD ratio)” value in assay [1] was “A (a compound having 10 or more and less than 20 is denoted as A)”. In assay [2], the Kd was found to be 0.12 nM. In addition, the “HRAS/KRAS (KD ratio)” value in assay [3] was “A (a compound having 10 or more and less than 20 is denoted as A)”. Further, in assay [4], the IC50 was found to be 3.8 nM.

(Values after patent US20240158446A1, “CYCLIC COMPOUND HAVING SELECTIVE INHIBITORY ACTION ON KRAS OVER HRAS AND NRAS” (CHUGAI SEIYAKU KABUSHIKI KAISHA, priority 2021, published 2024).)
